These results are taken from patent US20170198006A1, “PRMT5 INHIBITORS AND USES THEREOF” (Epizyme, Inc., priority 2014, published 2017).

The assay deals with T1, PRMT5/MEP50 (Homo sapiens, UniProt O14744).
T1 construct: Flag-PRMT5; made in house; host or cells: Spodoptera frugiperda (SF9), baculovirus
T1 sequence (O14744 with tags, fused parts or gaps): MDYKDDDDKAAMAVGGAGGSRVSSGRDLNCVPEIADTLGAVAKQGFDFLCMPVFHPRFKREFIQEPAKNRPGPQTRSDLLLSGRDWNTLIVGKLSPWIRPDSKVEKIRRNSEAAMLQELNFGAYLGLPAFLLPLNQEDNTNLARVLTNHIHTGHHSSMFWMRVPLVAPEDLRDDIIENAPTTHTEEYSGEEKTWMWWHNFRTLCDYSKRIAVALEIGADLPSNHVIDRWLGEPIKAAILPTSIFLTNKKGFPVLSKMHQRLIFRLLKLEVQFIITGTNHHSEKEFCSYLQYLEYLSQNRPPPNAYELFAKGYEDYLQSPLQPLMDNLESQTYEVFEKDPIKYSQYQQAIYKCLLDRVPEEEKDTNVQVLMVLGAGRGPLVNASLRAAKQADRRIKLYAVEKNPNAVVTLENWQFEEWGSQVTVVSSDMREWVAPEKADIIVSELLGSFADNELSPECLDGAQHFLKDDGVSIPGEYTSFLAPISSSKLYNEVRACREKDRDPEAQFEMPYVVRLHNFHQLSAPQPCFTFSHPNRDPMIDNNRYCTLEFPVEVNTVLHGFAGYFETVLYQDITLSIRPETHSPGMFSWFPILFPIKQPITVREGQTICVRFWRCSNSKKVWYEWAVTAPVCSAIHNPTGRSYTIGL
T1 sequence (Q9BQA1 with tags, fused parts or gaps partner limits assumed): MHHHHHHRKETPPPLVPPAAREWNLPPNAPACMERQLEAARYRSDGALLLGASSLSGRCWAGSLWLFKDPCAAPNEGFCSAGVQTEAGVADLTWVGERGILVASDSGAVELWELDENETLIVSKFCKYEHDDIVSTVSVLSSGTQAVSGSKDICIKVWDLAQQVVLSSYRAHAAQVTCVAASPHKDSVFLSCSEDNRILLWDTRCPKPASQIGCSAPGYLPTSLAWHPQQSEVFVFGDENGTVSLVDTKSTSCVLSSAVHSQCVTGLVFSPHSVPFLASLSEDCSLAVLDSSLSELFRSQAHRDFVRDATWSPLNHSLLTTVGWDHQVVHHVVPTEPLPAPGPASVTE
In words: PRMT5 Biochemical Assay (PRMT5/MEP50 enzyme assay on histone H4 peptide substrate, 3H-SAM Flashplate). The following applies: PRMT5 biochemical assay; read-out: Biochemical IC50. The source says:
S-adenosylmethionine (SAM), S-adenosylhomocysteine (SAH), bicine, KCl, Tween20, dimethylsulfoxide (DMSO), bovine skin gelatin (BSG), and Tris(2-carboxyethyl)phosphine hydrochloride solution (TCEP) were purchased from Sigma-Aldrich at the highest level of purity possible. ^3H-SAM was purchase from American Radiolabeled Chemicals with a specific activity of 80 Ci/mmol. 384-well streptavidin Flashplates were purchased from PerkinElmer.
Peptide representative of human histone H4 residues 1-15 was synthesized with a C-terminal linker-affinity tag motif and a C-terminal amide cap by 21st Century Biochemicals.
The amplified genes were sublconed into pENTR/D/TEV (Life Technologies) and subsequently transferred by Gateway™ attL×attR recombination to pDEST8 baculvirus expression vector (Life Technologies).
Protein over-expression was accomplished by infecting exponentially growing Spodoptera frugiperda (SF9) cell culture at 1.2×10^6 cell/ml with a 5000 fold dilution of BIIC stock. Infections were carried out at 27° C. for 72 hours, harvested by centrifugation, and stored at −80° C. for purification.
Flag-PRMT5/6His-MeP50 was eluted with 300 mM Imidazole in the same buffer.
General Procedure for PRMT5/MEP50 Enzyme Assays on Peptide Substrates.
The assays were all performed in a buffer consisting of 20 mM Bicine (pH=7.6), 1 mM TCEP, 0.005% BSG, and 0.002% Tween20, prepared on the day of use. […] DMSO (1 ul) was added to Columns 11, 12, 23, 24, rows A-H for the maximum signal control and 1 ul of SAH, a known product and inhibitor of PRMT5/MEP50, was added to columns 11, 12, 23, 24, rows I-P for the minimum signal control. A cocktail (40 ul) containing the PRMT5/MEP50 enzyme and the peptide was added by Multidrop Combi (Thermo-Fisher). The compounds were allowed to incubate with PRMT5/MEP50 for 30 min at 25 degrees Celsius, then a cocktail (10 ul) containing ^3H-SAM was added to initiate the reaction (final volume=51 ul). […] The assays were stopped by the addition of non-radioactive SAM (10 ul) to a final concentration of 600 uM, which dilutes the ^3H-SAM to a level where its incorporation into the peptide substrate is no longer detectable. 50 ul of the reaction in the 384-well polypropylene plate was then transferred to a 384-well Flashplate and the biotinylated peptides were allowed to bind to the streptavidin surface for at least 1 hour before being washed three times with 0.1% Tween20 in a Biotek ELx405 plate washer. The plates were then read in a PerkinElmer TopCount plate reader to measure the quantity of ^3H-labeled peptide bound to the Flashplate surface, measured as disintegrations per minute (dpm) or alternatively, referred to as counts per minute (cpm).
Where dpm=disintegrations per minute, cmpd=signal in assay well, and min and max are the respective minimum and maximum signal controls.
Where top and bottom are the normally allowed to float, but may be fixed at 100 or 0 respectively in a 3-parameter fit. The Hill Coefficient normally allowed to float but may also be fixed at 1 in a 3-parameter fit. Y is the % inhibition and X is the compound concentration.
For the molecule `Cc1ccc(C(=O)CC2NC(N3CCN(C)CC3)=NC2=O)cc1` (stereo not shown) [Compound 27-14], the IC50 – broadly, the concentration at which inhibition is half-maximal – was 1000 to 10000 nM.
For `CC(CN)N(C)C[C@H]1O[C@@H](n2cnc3c(N)ncnc32)[C@H](O)[C@@H]1O` (stereo partly shown) [Compound 28-1] the value was 101 to 1000 nM.
For `Cc1ccc(C(=O)CC2NC(N3CCN(Cc4ccccc4)CC3)=NC2=O)cc1` (stereo not shown) [Compound 28-14] the value was 1000 to 10000 nM; for `NCCNC[C@H]1O[C@@H](n2cnc3c(N)ncnc32)[C@H](O)[C@@H]1O` [Compound 29-1], 101 to 1000 nM; for `Cc1ccc(C(=O)CC2NC(N3CCc4ccccc4C3)=NC2=O)cc1` (stereo not shown) [Compound 29-14], 101 to 1000 nM.
Consider `NCCCN(CCN)C[C@H]1O[C@@H](n2cnc3c(N)ncnc32)[C@H](O)[C@@H]1O` [Compound 30-1], for which the IC50 is below 100 nM.
For `Cc1ccc(C(=O)CC2NC(N3CCN(c4ccccc4F)CC3)=NC2=O)cc1` (stereo not shown) [Compound 30-14] the value was 1000 to 10000 nM.
On to `NCCN(CCCC(=O)O)C[C@H]1O[C@@H](n2cnc3c(N)ncnc32)[C@H](O)[C@@H]1O` [Compound 31-1], for which the IC50 was below 100 nM.
On to `Cc1ccc(C(=O)CC2NC(N3CCN(c4cccc(F)c4)CC3)=NC2=O)cc1` (stereo not shown) [Compound 31-14], for which the IC50 was 1000 to 10000 nM.
For `CN(CCC[C@@H](N)C(=O)O)C[C@H]1O[C@@H](n2cnc3c(N)ncnc32)[C@H](O)[C@@H]1O` [Compound 32-1] the value was 101 to 1000 nM; for `Cc1ccc(C(=O)CC2NC(N3CCN(c4ccc(F)cc4)CC3)=NC2=O)cc1` (stereo not shown) [Compound 32-14], 1000 to 10000 nM.
The figure for `CC(CCCN(CCN)C[C@H]1O[C@@H](n2cnc3c(N)ncnc32)[C@H](O)[C@@H]1O)C(=O)O` (stereo partly shown) [Compound 33-1] is below 100 nM.
The figure for `Cc1ccc(C(=O)CC2NC(N3CCN(c4ccccn4)CC3)=NC2=O)cc1` (stereo not shown) [Compound 33-14] is 1000 to 10000 nM; for `NCCN(CCCCC(=O)O)C[C@H]1O[C@@H](n2cnc3c(N)ncnc32)[C@H](O)[C@@H]1O` [Compound 34-1] it is below 100 nM.
`Cc1ccc(C(=O)CC2NC(N3CCN(c4ccncc4)CC3)=NC2=O)cc1` (stereo not shown) [Compound 34-14]: the IC50 fell in the range of 10000 to 50000 nM.
The figure for `NCCN(CCC[C@H](N)CO)C[C@H]1O[C@@H](n2cnc3c(N)ncnc32)[C@H](O)[C@@H]1O` [Compound 35-1] is 101 to 1000 nM; for `Cc1ccc(C(=O)CC2NC(N3CCN(Cc4ccc(F)cc4)CC3)=NC2=O)cc1` (stereo not shown) [Compound 35-14] it is 1000 to 10000 nM; for `Cc1ccc(C(=O)CC2NC(N3Cc4ccccc4C3)=NC2=O)cc1` (stereo not shown) [Compound 36-14] it is 1000 to 10000 nM.
On to `CN(C)CCN(C)C[C@H]1O[C@@H](n2cnc3c(N)ncnc32)[C@H](O)[C@@H]1O` [Compound 37-1], for which the IC50 lay within 101 to 1000 nM.
As to `O=C(CC1NC(N2CCN(c3ccccc3)CC2)=NC1=O)c1ccccc1` (stereo not shown) [Compound 37-14], the half-inhibitory concentration (IC50) was 101 to 1000 nM.
As for `CCN(CC)CCN(C)C[C@H]1O[C@@H](n2cnc3c(N)ncnc32)[C@H](O)[C@@H]1O` [Compound 38-1], the IC50 was 101 to 1000 nM.
On to `COc1ccc(C(=O)CC2NC(N3CCN(c4ccccc4)CC3)=NC2=O)cc1` (stereo not shown) [Compound 38-14], for which the IC50 is 1000 to 10000 nM.
Take `CN1CCC(N(C)CCN(C)C[C@H]2O[C@@H](n3cnc4c(N)ncnc43)[C@H](O)[C@@H]2O)C1` (stereo partly shown) [Compound 39-1]: the IC50 was in the range of 101 to 1000 nM.
The figure for `COc1cccc(C(=O)CC2NC(N3CCN(c4ccccc4)CC3)=NC2=O)c1` (stereo not shown) [Compound 39-14] is 101 to 1000 nM.
Regarding `CN(CCN1CCCN(Cc2ccccc2)CC1)C[C@H]1OC(n2cnc3c(N)ncnc32)[C@H](O)[C@@H]1O` (stereo partly shown) [Compound 40-1], the IC50 is 101 to 1000 nM.
The figure for `N#Cc1ccc(C(=O)CC2NC(N3CCN(c4ccccc4)CC3)=NC2=O)cc1` (stereo not shown) [Compound 40-14] is 1000 to 10000 nM; for `CN(CCN1CCC(Oc2ccccn2)CC1)C[C@H]1OC(n2cnc3c(N)ncnc32)[C@H](O)[C@@H]1O` (stereo partly shown) [Compound 41-1] it is 101 to 1000 nM.
As to `Cc1ccc(C(=O)CC2NC(N(C)CCc3ccccc3)=NC2=O)cc1` (stereo not shown) [Compound 41-14], the IC50 was 1000 to 10000 nM.
Consider `CCCN(CCN(C)C[C@H]1O[C@@H](n2cnc3c(N)ncnc32)[C@H](O)[C@@H]1O)CC1CC1` [Compound 42-1], for which the IC50 was in the range of 101 to 1000 nM.
For `O=C(CC1NC(N2CCN(c3ccccc3)CC2)=NC1=O)c1ccc(Cl)cc1` (stereo not shown) [Compound 42-14] the value was 101 to 1000 nM; for `CN(CCN1CCC(c2ccccc2)CC1)CC1OC(n2cnc3c(N)ncnc32)[C@H](O)[C@@H]1O` (stereo partly shown) [Compound 43-1], 101 to 1000 nM; for `Cc1ccc(C(=O)CC2NC(N3CCN(c4cccnc4)CC3)=NC2=O)cc1` (stereo not shown) [Compound 43-14], 1000 to 10000 nM.
In the case of `CC1CCN(CCN(C)C[C@H]2O[C@@H](n3cnc4c(N)ncnc43)[C@H](O)[C@@H]2O)CC1` [Compound 44-1], the IC50 fell in the range of 101 to 1000 nM.
Consider `Cc1ccc(C(=O)CC2NC(N3CCN(Cc4ccncc4)CC3)=NC2=O)cc1` (stereo not shown) [Compound 44-14], for which the IC50 fell in the range of 1000 to 10000 nM.
The figure for `CN(CCN1CCN(CCc2ccccc2)CC1)C[C@H]1O[C@@H](n2cnc3c(N)ncnc32)[C@H](O)[C@@H]1O` [Compound 45-1] is 101 to 1000 nM; for `Cc1ccc(C(=O)CC2NC(N(C)CCN(C)c3ccccc3)=NC2=O)cc1` (stereo not shown) [Compound 45-14] it is 10000 to 50000 nM; for `CN(CCO)CCN(C)C[C@H]1O[C@@H](n2cnc3c(N)ncnc32)[C@H](O)[C@@H]1O` [Compound 46-1] it is 101 to 1000 nM.
The figure for `N#Cc1cccc(C(=O)CC2NC(N3CCN(c4ccccc4)CC3)=NC2=O)c1` (stereo not shown) [Compound 46-14] is 1000 to 10000 nM; for `CN(CCc1c[nH]cn1)CCN(C)C[C@H]1O[C@@H](n2cnc3c(N)ncnc32)[C@H](O)[C@@H]1O` [Compound 47-1] it is 101 to 1000 nM.
Consider `O=C(CC1NC(N2CCN(c3ccccc3)CC2)=NC1=O)c1cccc(Cl)c1` (stereo not shown) [Compound 47-14], for which the IC50 was 101 to 1000 nM.
Take `COc1ccccc1C(=O)CC1NC(N2CCC(c3ccccc3)CC2)=NC1=O` (stereo not shown) [Compound 48-14]: the IC50 lay in the range of 101 to 1000 nM.
For `CN(CCN(CC[C@H](N)C(=O)OCc1ccccc1)C[C@H]1O[C@@H](n2cnc3c(N)ncnc32)[C@H](O)[C@@H]1O)C(=O)OCc1ccccc1` [Compound 49-1], the concentration for half-maximal inhibition (IC50) is below 100 nM.
For `O=C(CC1NC(N2CCN(c3ccccc3)CC2)=NC1=O)Nc1ccccc1Cl` (stereo not shown) [Compound 49-14] the value was 10000 to 50000 nM; for `CCN(CCc1ccc(Cl)cc1)CCN(C)C[C@H]1O[C@@H](n2cnc3c(N)ncnc32)[C@H](O)[C@@H]1O` [Compound 50-1], 101 to 1000 nM.
For `O=C(CC1NC(N2CCN(c3ccccc3)CC2)=NC1=O)Nc1cccc(Cl)c1` (stereo not shown) [Compound 50-14] the value was 1000 to 10000 nM.
As to `CN(CCN(CCc1ccc(Cl)cc1)Cc1ccccc1)C[C@H]1O[C@@H](n2cnc3c(N)ncnc32)[C@H](O)[C@@H]1O` [Compound 51-1], the IC50 is 101 to 1000 nM.
`O=C(CC1NC(N2CCN(c3ccccc3)CC2)=NC1=O)Nc1cccc(Cl)c1Cl` (stereo not shown) [Compound 51-14]: the IC50 fell in the range of 10000 to 50000 nM.
The figure for `CN(CCc1ccc(Cl)cc1)CCN(C)C[C@H]1O[C@@H](n2cnc3c(N)ncnc32)[C@H](O)[C@@H]1O` [Compound 52-1] is 101 to 1000 nM.
The figure for `O=C(CC1NC(N2CCN(c3ccccc3)CC2)=NC1=O)NC1CCCCC1` (stereo not shown) [Compound 52-14] is 10000 to 50000 nM; for `CN(CCNC1CCNCC1)C[C@H]1O[C@@H](n2cnc3c(N)ncnc32)[C@H](O)[C@@H]1O` [Compound 53-1] it is 101 to 1000 nM.
As for `O=C(CC1NC(N2CCN(c3ccccc3)CC2)=NC1=O)NCC1CCCCC1` (stereo not shown) [Compound 53-14], the IC50 was 1000 to 10000 nM.
As to `CN(CCNC1CCCCC1)C[C@H]1O[C@@H](n2cnc3c(N)ncnc32)[C@H](O)[C@@H]1O` [Compound 54-1], the IC50 is below 100 nM.
The figure for `COc1ccccc1C(O)CC1N=C(N2CCN(c3ccccc3)CC2)NC1=O` (stereo not shown) [Compound 54-14] is 10000 to 50000 nM; for `CN(CCNCCc1c[nH]c2ccccc12)C[C@H]1O[C@@H](n2cnc3c(N)ncnc32)[C@H](O)[C@@H]1O` [Compound 55-1] it is below 100 nM; for `COc1ccccc1C(=O)CC1NC(N2CCC(O)(c3ccccc3)CC2)=NC1=O` (stereo not shown) [Compound 55-14] it is 101 to 1000 nM.
